Test system: SARS-CoV-2 replicon
Format: cell-based
Settings: read-out: SARS-CoV-2 Replicon (Huh-7cell) EC50

Compound	EC50 [nM]
CC(C)OC(=O)OCO[P@@](=O)(N[C@@H](C)C(=O)OC(C)C)OC[C@H]1O[C@@](C#N)(c2ccc3c(N)ncnn23)[C@H](OC(=O)C(C)C)[C@@H]1OC(=O)C(C)C [Compound 3a, (2R,3R,4R,5R)-2-(4-aminopyrrolo[2,1-f][1,2,4]triazin-7-yl)-2-cyano-5-((((R)-(((S)-1-isopropoxy-1-oxopropan-2-yl)amino)(((isopropoxycarbonyl)oxy)methoxy)phosphoryl)oxy)methyl)tetrahydrofuran-3,4-diyl bis(2-methylpropionate)]	10 to 50
CCCCCCCCCCCCOC(=O)[C@H](C)N[P@](=O)(OC[C@H]1O[C@@](C#N)(c2ccc3c(N)ncnn23)[C@H](OC(=O)C(C)C)[C@@H]1OC(=O)C(C)C)Oc1ccccc1 [Compound 46b, (2R,3R,4R,5R)-2-(4-aminopyrrolo[2,1-f][1,2,4]triazin-7-yl)-2-cyano-5-((((S)-(((S)-1-(dodecyloxy)-1-oxopropan-2-yl)amino)(phenoxy)phosphoryl)oxy)methyl)tetrahydrofuran-3,4-diyl bis(2-methylpropionate)]	50 to 500
CCC(C)(C)COC(=O)[C@H](C)NP(=O)(OCOC(=O)OC(C)C)OC[C@H]1O[C@@](C#N)(c2ccc3c(N)ncnn23)[C@H](OC(=O)C(C)C)[C@@H]1OC(=O)C(C)C (mixture of isomers) [Compound 14, (2R,3R,4R,5R)-2-(4-aminopyrrolo[2,1-f][1,2,4]triazin-7-yl)-2-cyano-5-((((((S)-1-(2,2-dimethylbutoxy)-1-oxopropan-2-yl)amino)(((isopropoxycarbonyl)oxy)methoxy)phosphoryl)oxy)methyl)tetrahydrofuran-3,4-diyl bis(2-methylpropionate)]	10 to 50
CC(=O)O[C@H]1[C@@H](OC(C)=O)[C@](C#N)(c2ccc3c(N)ncnn23)O[C@@H]1COP(=O)(OCOC(=O)OC(C)C)OCOC(=O)OC(C)C [Compound 17, (2R,3R,4R,5R)-2-(4-aminopyrrolo[2,1-f][1,2,4]triazin-7-yl)-5-((((bis(((isopropoxycarbonyl)oxy)methoxy)phosphoryl))oxy)methyl)-2-cyanotetrahydrofuran-3,4-diyl diacetate]	< 5
CC(C)OC(=O)OCO[P@](=O)(N[C@@H](C)C(=O)OC(C)C)OC[C@H]1O[C@@](C#N)(c2ccc3c(N)ncnn23)[C@H](OC(=O)C(C)C)[C@@H]1OC(=O)C(C)C [Compound 3b, (2R,3R,4R,5R)-2-(4-aminopyrrolo[2,1-f][1,2,4]triazin-7-yl)-2-cyano-5-((((S)-(((S)-1-isopropoxy-1-oxopropan-2-yl)amino)(((isopropoxycarbonyl)oxy)methoxy)phosphoryl)oxy)methyl)tetrahydrofuran-3,4-diyl bis(2-methylpropionate)]	< 5
CCC(CC)COC(=O)C1(N[P@](=O)(OCOC(=O)OC(C)C)OC[C@H]2O[C@@](C#N)(c3ccc4c(N)ncnn34)[C@H](OC(=O)C(C)C)[C@@H]2OC(=O)C(C)C)CCC1 [Compound 32a, (2R,3R,4R,5R)-2-(4-aminopyrrolo[2,1-f][1,2,4]triazin-7-yl)-2-cyano-5-((((R)-((1-((2-ethylbutoxy)carbonyl)cyclobutyl)amino)(((isopropoxycarbonyl)oxy)methoxy)phosphoryl)oxy)methyl)tetrahydrofuran-3,4-diyl bis(2-methylpropionate)]	10 to 50
CCCCCOC(=O)C[C@H](N[P@](=O)(OC[C@H]1O[C@@](C#N)(c2ccc3c(N)ncnn23)[C@H](OC(=O)C(C)C)[C@@H]1OC(=O)C(C)C)Oc1ccccc1)C(=O)OCCCCC [Compound 38b, (2R,3R,4R,5R)-2-(4-aminopyrrolo[2,1-f][1,2,4]triazin-7-yl)-2-cyano-5-((((S)-(((S)-1,4-dipentyloxy-1,4-dioxobutan-2-yl)amino)(phenoxy)phosphoryl)oxy)methyl)tetrahydrofuran-3,4-diyl bis(2-methylpropionate)]	10 to 50
CC(C)C(=O)O[C@H]1[C@@H](OC(=O)C(C)C)[C@](C#N)(c2ccc3c(N)ncnn23)O[C@@H]1CO[P@@](=O)(N[C@@H](CC(=O)OC1CCC1)C(=O)OC1CCC1)Oc1ccccc1 [Compound 54b, (2R,3R,4R,5R)-2-(4-aminopyrrolo[2,1-f][1,2,4]triazin-7-yl)-2-cyano-5-((((S)-(((S)-1,4-dicyclobutoxy-1,4-dioxobutan-2-yl)amino)(phenoxy)phosphoryl)oxy)methyl)tetrahydrofuran-3,4-diyl bis(2-methylpropionate)]	< 5
(2R,3R,4R,5R)-2-(4-aminopyrrolo[2,1-f][1,2,4]triazin-7-yl)-2-cyano-5-((((S)-(((S)-1-(2-ethylbutoxy)-1-oxopropan-2-yl)amino)(((isopropoxycarbonyl)oxy)methoxy)phosphoryl)oxy)methyl)tetrahydrofuran-3,4-diyl diacetate [Compound 5b]	5 to 10
CCC(=O)O[C@H]1[C@@H](OC(=O)CC)[C@](C#N)(c2ccc3c(N)ncnn23)O[C@@H]1CO[P@](=O)(N[C@@H](C)C(=O)OC(C)C)OCOC(=O)OC(C)C [Compound 2a, (2R,3R,4R,5R)-2-(4-aminopyrrolo[2,1-f][1,2,4]triazin-7-yl)-2-cyano-5-((((R)-(((S)-1-isopropoxy-1-oxopropan-2-yl)amino)(((isopropoxycarbonyl)oxy)methoxy)phosphoryl)oxy)methyl)tetrahydrofuran-3,4-diyl dipropionate]	5 to 10
CCC(CC)COC(=O)C1(N[P@@](=O)(OCOC(=O)OC(C)C)OC[C@H]2O[C@@](C#N)(c3ccc4c(N)ncnn34)[C@H](OC(=O)C(C)C)[C@@H]2OC(=O)C(C)C)CCC1 [Compound 32b, (2R,3R,4R,5R)-2-(4-aminopyrrolo[2,1-f][1,2,4]triazin-7-yl)-2-cyano-5-((((S)-((1-((2-ethylbutoxy)carbonyl)cyclobutyl)amino)(((isopropoxycarbonyl)oxy)methoxy)phosphoryl)oxy)methyl)tetrahydrofuran-3,4-diyl bis(2-methylpropionate)]	10 to 50
CCC(CC)COC(=O)[C@H](Cc1ccccc1)N[P@](=O)(OC[C@H]1O[C@@](C#N)(c2ccc3c(N)ncnn23)[C@H](OC(=O)C(C)C)[C@@H]1OC(=O)C(C)C)Oc1ccc(C(C)(C)C)cc1 [Compound 53b, (2R,3R,4R,5R)-2-(4-aminopyrrolo[2,1-f][1,2,4]triazin-7-yl)-2-cyano-5-((((((S)-1-(2-ethylbutoxy)-1-oxo-3-phenylpropan-2-yl)amino)((S)-4-tert-butylphenoxy)phosphoryl)oxy)methyl)tetrahydrofuran-3,4-diyl bis(2-methylpropionate)]	10 to 50
[2H]c1cc([C@]2(C#N)O[C@H](COP(=O)(OCOC(=O)OC(C)C)OCOC(=O)OC(C)C)[C@@H](OC(=O)C(C)C)[C@H]2OC(=O)C(C)C)n2ncnc(N)c12 [Compound 21, (2R,3R,4R,5R)-2-(4-amino-5-deuteriopyrrolo[2,1-f][1,2,4]triazin-7-yl)-5-((((bis(((isopropoxycarbonyl)oxy)methoxy))phosphoryl)oxy)methyl)-2-cyanotetrahydrofuran-3,4-diyl bis(2-methylpropionate)]	< 5
(2R,3R,4R,5R)-2-(4-aminopyrrolo[2,1-f][1,2,4]triazin-7-yl)-2-cyano-5-((((S)-(((S)-1-isopropoxy-1-oxopropan-2-yl)amino)(((isopropoxycarbonyl)oxy)methoxy)phosphoryl)oxy)methyl)tetrahydrofuran-3,4-diyl diacetate [Compound 1b]	5 to 10
CC(C)OC(=O)OCO[P@](=O)(N[C@@H](C)C(=O)OC1CCC1)OC[C@H]1O[C@@](C#N)(c2ccc3c(N)ncnn23)[C@H](OC(=O)C(C)C)[C@@H]1OC(=O)C(C)C [Compound 13b, (2R,3R,4R,5R)-2-(4-aminopyrrolo[2,1-f][1,2,4]triazin-7-yl)-2-cyano-5-((((S)-(((S)-1-cyclobutoxy-1-oxopropan-2-yl)amino)(((isopropoxycarbonyl)oxy)methoxy)phosphoryl)oxy)methyl)tetrahydrofuran-3,4-diyl bis(2-methylpropionate)]	< 5
CCC(CC)COC(=O)[C@H](Cc1ccccc1)N[P@](=O)(OC[C@H]1O[C@@](C#N)(c2ccc3c(N)ncnn23)[C@H](OC(=O)C(C)C)[C@@H]1OC(=O)C(C)C)Oc1ccccc1 [Compound 41b, (2R,3R,4R,5R)-2-(4-aminopyrrolo[2,1-f][1,2,4]triazin-7-yl)-2-cyano-5-((((S)-(((S)-1-(2-ethylbutoxy)-1-oxo-3-phenylpropan-2-yl)amino)(phenoxy)phosphoryl)oxy)methyl)tetrahydrofuran-3,4-diyl bis(2-methylpropionate)]	5 to 10
CCC(CC)COC(=O)[C@H](C)N[P@@](=O)(OCOC(=O)C(C)(C)C)OC[C@H]1O[C@@](C#N)(c2ccc3c(N)ncnn23)[C@H](OC(C)=O)[C@@H]1OC(C)=O [Compound 9b, (2R,3R,4R,5R)-2-(4-aminopyrrolo[2,1-f][1,2,4]triazin-7-yl)-2-cyano-5-((((S)-(((S)-1-(2-ethylbutoxy)-1-oxopropan-2-yl)amino)((pivaloyloxy)methoxy)phosphoryl)oxy)methyl)tetrahydrofuran-3,4-diyl diacetate]	≤ 5
CC(C)OC(=O)OCO[P@](=O)(N[C@@H](C)C(=O)OC(C)C)OC[C@H]1O[C@@](C#N)(c2ccc3c(N)ncnn23)[C@H](OC(=O)C(C)(C)C)[C@@H]1OC(=O)C(C)(C)C [Compound 4b, (2R,3R,4R,5R)-2-(4-aminopyrrolo[2,1-f][1,2,4]triazin-7-yl)-2-cyano-5-((((S)-(((S)-1-isopropoxy-1-oxopropan-2-yl)amino)(((isopropoxycarbonyl)oxy)methoxy)phosphoryl)oxy)methyl)tetrahydrofuran-3,4-diyl bis(2,2-dimethylpropionate)]	50 to 500
CC(=O)O[C@H]1[C@@H](OC(C)=O)[C@](C#N)(c2ccc3c(N)ncnn23)O[C@@H]1CO[P@@](=O)(OCOC(=O)OC(C)C)Oc1ccc(C(C)(C)C)cc1 [Compound 22b, ((2R,3R,4R,5R)-2-(4-aminopyrrolo[2,1-f][1,2,4]triazin-7-yl)-5-((((R)-(4-tert-butylphenoxy)(((isopropoxycarbonyl)oxy)methoxy)phosphoryl)oxy)methyl)-2-cyanotetrahydrofuran-3,4-diyl diacetate]	5 to 10

— patent EP4617278A1, “NUCLEOTIDE ANALOG, AND COMPOSITION AND USE THEREOF” (priority 2022, dated 2024)
